Ends that are not written are not given here. FPI774 = near-infrared fluorescent reagent (label)
Tests used:
[1] = tested on: tumor of K-ras^LA2 transgenic mouse; assay: Binding capability of phage clones to tumor (phage titer); type: in vivo; settings: phage clone expressing the peptide administered into K-ras^LA2 transgenic mouse; FIG. 4B
Procedure: The phage clones that express each of the peptides were administered into the K-ras^LA2 transgenic mouse, and bound to tumor, and a titer of the phage clones was measured.

[2] = tested on: K-ras transgenic tumor cells; assay: Phage library screening and sequence analysis of phage clones; type: in vivo, mouse; settings: phage clones from 4th and 5th screening rounds, sequence analysis
Procedure: To screen peptides having specificity to K-ras transgenic tumor cells in the T7 CX7C phage library prepared above, a random peptide phage library (1×10^11 pfu) were injected into a K-ras^LA2 transgenic mouse via the tail vein.
After 15 minutes, the tumor was excised from the lungs of the K-ras^LA2 transgenic mouse, finely ground, and added to a DMEM medium to prepare a cell suspension, which was then passed through a70-M filter (DAKO, Carpinteria, Calif., USA). The phages bound to the tumor were reacted with 1% NP-40 for 10 minutes for separation. Afterwards, the separated phages were recovered by treatment with cultured BL21 host bacteria. The phages that were recovered by the BL21 host bacteria and amplified were injected into a K-ras^LA2 transgenic mouse via the tail vein. Such a round of the screening of phage library was repeated five times. […] At the final 5th round, the multiplicative […] of the phage clones increased 162 times the first round. Afterwards, from the 4th round and the 5th rounds, a total of 49 clones were randomly selected for the sequencing.
DNA inserts of each of the 49 phage clones collected in Example 2-2 were sequenced by an automated DNA sequencer (Genotech Inc., Daegeon and SolGent Inc. Daegu) using a 96 pill primer (New England Biolabs). To find amino acid motifs shared between the common sequences or peptides, amino acid sequences deduced based on the nucleotide sequences were was aligned by using the Clustal W program. To find proteins having significant homology, NCBI BLAST search was performed with respect to peptide sequences. As a result of the sequence analysis of the peptides, four phage clones with high affinity for the K-ras transgenic tumor cells were confirmed, and the peptide sequences thereof were as follows: CKSRKDGAC (4R-3, SEQ ID NO: 1), CMPKRPSSC (4R-16, SEQ ID NO: 2), CRGTAEG (4R-21, SEQ ID NO: 3), and CRQTKN (5R-7, SEQ ID NO: 4).

[3] = tested on: tumors of the K-ras^LA2 transgenic mouse; assay: Near-infrared fluorescence imaging of FPI774-labeled tumor-targeting peptides; type: in vivo; settings: FPI774-labeled peptide, tail vein, 4 hours, FIG. 5
Procedure: To validate whether the peptides prepared in <Example 2-5> in the present invention were specifically transferred to the tumor cells of the K-ras^LA2 transgenic mouse, a control peptide and a peptide labeled with FPI774 and having SEQ ID NO: 1 to SEQ ID NO: 4 were injected into the K-ras^LA2 transgenic mouse and a normal mouse via the tail vein of each mouse. After 4 hours, the mice were sacrificed, and each organ thereof was extracted for the near-infrared fluorescence imaging using the eXplore Optix system (ART Inc, Montreal, Canada).

[4] = tested on: tumors of K-ras^LA2 transgenic mouse; assay: Target transfer capability of FPI774-CRQTKN peptide (near-infrared organ imaging); type: in vivo; settings: tail vein, 4 hours; for fluorescence of FPI774 in the lungs: FIG. 6A
Procedure: To confirm the binding capability of the CRQTKN peptide (SEQ ID NO: 4) to the K-ras tumors, the FPI774-CRQTKN (SEQ ID NO: 13) peptide, which is a peptide labeled with a near-infrared fluorescent reagent FPI774, and a control peptide were administered into a K-ras^LA2 transgenic mouse and a normal mouse via the tail vein of each mouse.
After 4 hours, the mice were scarified, and each organ thereof was extracted for the near-infrared fluorescence imaging using the eXplore Optix system (ART Inc, Montreal, Canada).

CKSRKDGAC (4R-3 peptide) [tumor-targeting peptide … identified by phage library screening; tested as phage clone and as FPI774-labeled peptide]
binding capability of phage clone to the tumor (titer) [1]: greatest binding capability
affinity of phage clones for the K-ras transgenic tumor cells [2]: high affinity

CMPKRPSSC (4R-16 peptide) [tumor-targeting peptide … identified by phage library screening]
affinity of phage clones for the K-ras transgenic tumor cells [2]: high affinity

CRGTAEG (4R-21 peptide) [tumor-targeting peptide CRGTAEG identified by phage library screening]
affinity of phage clones for the K-ras transgenic tumor cells [2]: high affinity

CRQTKN: tumor-targeting peptide CRQTKN identified by phage library screening (5R-7 peptide)
transfer to the tumors (near-infrared fluorescence) [3]: most strongly transferred
affinity of phage clones for the K-ras transgenic tumor cells [2]: high affinity

FPI774-CRQTKN: CRQTKN peptide labeled with a near-infrared fluorescent reagent FPI774
fluorescence of FPI774 in the lungs ([4]; K-ras^LA2 transgenic mouse): strongly expressed
fluorescence of FPI774 in the lungs ([4]; normal mouse): not expressed
fluorescence of FPI774 in organs other than the lungs (kidney and liver) ([4]; FIG. 6B): not observed in general
